Measured values as given in US20030119067A1, “PYK2 related products and methods” (Sugen, Inc., priority 1996, published 2003).

Tested on: PYK-2
Assay: Tyrosine phosphorylation of PYK-2 in NIH3T3 cells overexpressing PYK-2
Type: cell-based
Conditions: NIH3T3 cells overexpressing PYK-2 / PYK-2-HA; TPA 6 μM, 15 min, 37° C.
Excerpt: The PYK-2 cDNA cloned in pLSV was cotransfected with pSV2neo into PC12 cells and NIH3T3 in order to establish stable cell lines. G418 resistant colonies were screened by immunoprecipitating and immunoblotting.
NIH3T3 cell lines were established that overexpress the PYK-2 and the PYK-2-HA protein. […] The level of phosphorylation is not so high.

Structure (SMILES): CCCCCCCCCCCCCC(=O)O[C@@H]1[C@@H](C)[C@@]2(O)[C@@H](C=C(CO)C[C@]3(O)C(=O)C(C)=C[C@@H]23)[C@@H]2C(C)(C)[C@]12OC(C)=O [PMA, phorbol 12-myristate 13-acetate]
- tyrosine phosphorylation of PYK-2: stronger effect
